Data reported in US6583170B1, “2-Phenyl-1-[4-(amino-1-yl-alk-1-ynyl)-benzyl]-1H-indol-5-ol and estrogen formulations” (Wyeth, priority 1998, dated 2003).
Values joined by “and” are separate entries in the source; they are usually repeats but may differ in a detail not shown here. Equal values may be shown once.

Legend:
[1] = system: uterus wet weight, immature Sprague-Dawley rats; assay: Rat Uterotrophic/Antiuterotrophic Bioassay; assay type: in vivo; conditions: day 4; for uterine wet weight, 10 μG: 10 uG compound daily ip; for uterine wet weight, 10 μG / uterine wet weight, 100 μG + 1 μG 17β-estradiol / uterine wet weight, 100 μG: immature female rats; for uterine wet weight, 100 μG + 1 μG 17β-estradiol: 100 uG compound + 1 uG 17β-estradiol daily ip; for uterine wet weight, 100 μG: 100 uG compound daily ip
Experimental: Rat Uterotrophic/Antiuterotrophic Bioassay The estrogenic and antiestrogenic properties of the compounds were determined in an immature rat uterotrophic assay (4 day) that (as described previously by L. J. Black and R. L. Goode, Life Sciences, 26, 1453 (1980)). Immature Sprague-Dawley rats (female, 18 days old) were tested in groups of six. […] A small section of one horn was submitted for histology and the remainder used to isolate total RNA in order to evaluate complement component 3 gene expression.

[2] = target: T1, estrogen receptor (Homo sapiens, UniProt P03372); assay: In Vitro Estrogen Receptor Binding Assay ([3H]-17β-estradiol competition); conditions: RBA: 17β-estradiol=100; cytosol of CHO cells overexpressing the estrogen receptor
T1 construct: expressed in transfected cells; host or cells: CHO cells, ribosome-free cytosol
T1 sequence (P03372 1-595): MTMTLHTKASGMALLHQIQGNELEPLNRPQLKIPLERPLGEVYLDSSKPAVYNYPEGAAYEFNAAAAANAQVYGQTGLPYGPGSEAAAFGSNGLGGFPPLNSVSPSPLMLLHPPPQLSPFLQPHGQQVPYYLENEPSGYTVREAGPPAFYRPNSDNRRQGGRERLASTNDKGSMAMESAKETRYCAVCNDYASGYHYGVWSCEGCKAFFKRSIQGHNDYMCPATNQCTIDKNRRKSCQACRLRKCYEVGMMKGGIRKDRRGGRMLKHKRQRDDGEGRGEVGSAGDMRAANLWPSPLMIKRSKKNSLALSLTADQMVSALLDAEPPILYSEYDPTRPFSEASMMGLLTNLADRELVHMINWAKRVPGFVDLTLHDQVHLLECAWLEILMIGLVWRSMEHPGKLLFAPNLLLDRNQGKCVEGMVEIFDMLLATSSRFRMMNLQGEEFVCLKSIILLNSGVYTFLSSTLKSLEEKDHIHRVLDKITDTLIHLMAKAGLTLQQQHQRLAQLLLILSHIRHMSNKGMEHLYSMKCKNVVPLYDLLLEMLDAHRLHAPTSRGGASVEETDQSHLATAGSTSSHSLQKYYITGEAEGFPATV

[3] = system: Ishikawa cells; assay: Ishikawa Cell Alkaline Phosphatase Assay; assay type: cell-based, human; conditions: compound alone; percent of response related to 1 nM 17β-estradiol; 48 h
Experimental: Ishikawa Cell Alkaline Phosphatase Assay Cell Maintenance and Treatment: […] Cells were treated for 48 h prior to assay. […] Sample population for at each dose was n=8. Alkaline Phosphatase Assay: […] Plates are placed at -80° C. for a minimum of 15 minutes. Plates are thawed at 37° C. followed by the addition of 150 μL of 0.1 M Tris-HCl, pH 9.8, containing 4 mM para-nitrophenylphosphate (pNPP) to each well (final concentration, 3 mM pNPP). Absorbance and slope calculations were made using the […] Application program (Bio-Tek Instruments, Inc., Winooski, VT.). […] Various compounds were assayed for estrogenic activity by the alkaline phosphatase method and corresponding ED50 values (95% C.I.) were calculated. The four listed in the following were used as as reference standards: A description of these methods is described by Holinka, […]., Kuramoto, H. and Gurpide, E. (1986) Effects of steroid hormones and antisteroids on alkaline phosphatase activity in human endometrial cancer cells (Ishikawa Line). Cancer Research, 46:2771-2774, and by […]. and […] simple and sensitive microtiter plate estrogen bioassay based on stimulation alkaline phosphatase in Ishikawa cells; […] Endocrinology, 6:2757-2762.

Structure (SMILES)	melting point [°C]	uterine wet weight, 1 μG 17β-estradiol ([1]; 1 uG 17β-estradiol daily ip, positive control of each experiment)	Estrogen Receptor Affinity (RBA) [2]	uterine wet weight, 10 μG [1] [mg]	uterine wet weight, 100 μG + 1 μG 17β-estradiol [1] [mg]	uterine wet weight, 100 μG [1] [mg]	% Activation [3] [%]
Cc1c(-c2ccc(O)cc2)n(Cc2ccc(C#CCN3CCCC3)cc2)c2ccc(O)cc12	174 to 176						
C[C@]12CC[C@@H]3c4ccc(O)cc4CC[C@H]3[C@@H]1CC[C@@H]2O [17β-estradiol]		1 μG 17β-estradiol = 98.2 mg and 1 μG 17β-estradiol = 90.2 mg and 1 μg 17β-estradiol = 82.8 mg					
Cc1c(-c2ccc(O)cc2)n(Cc2ccc(C#CCN(C)C)cc2)c2ccc(O)cc12 [Example 4, 2-(4-Hydroxy-phenyl)-3-methyl-1-[4-(3-N,N-dimethyl-1-yl-prop-1-ynyl)-benzyl]-1H-indol-5-ol]			53	56.0	77.6	84.0	
Cc1c(-c2ccc(O)cc2)n(Cc2ccc(C#CCN3CCCCC3)cc2)c2ccc(O)cc12 [Example 5, 2-(4-Hydroxy-phenyl)-3-methyl-1-[4-(3-piperidin-1-yl-prop-1-vinyl)-benzyl]-1H-indol-5-ol]			23	55.6	66.8	71.3	
O=C(c1ccc(OCCN2CCCCC2)cc1)c1c(-c2ccc(O)cc2)sc2cc(O)ccc12 [Raloxifene]				47.5		43.2	5
CC/C(=C(\c1ccccc1)c1ccc(OCCN(C)C)cc1)c1ccccc1 [Tamoxifen]				69.6		71.4	0
